The conditions of data set [1]: rat, in vivo.
Description: (§1) Male Wistar rats were dosed by the snout-only inhalation route with (2-{5-Cyano-2-[(R)-6-methoxycarbonyl-7-methyl-3-oxo-8-(3-trifluoromethyl-phenyl)-2,3,5,8-tetrahydro-[1,2,4]triazolo[4,3-a]pyrimidin-5-yl]-phenyl}-ethyl)-trimethyl-ammonium methanesulfonate salt (described in WO 2014/095700), (2-{5-Cyano-2-[(R)-6-methoxycarbonyl-7-methyl-3-oxo-8-(3-trifluoromethyl-phenyl)-2,3,5,8-tetrahydro-[1,2,4]triazolo[4,3-a]pyrimidin-5-yl]-phenyl}-ethyl)-trimethyl-ammonium xinafoate salt (I) and (2-{5-Cyano-2-[(R)-6-methoxycarbonyl-7-methyl-3-oxo-8-(3-trifluoromethyl-phenyl)-2,3,5,8-tetrahydro-[1,2,4]triazolo[4,3-a]pyrimidin-5-yl]-phenyl}-ethyl)-trimethyl-ammonium acetate salt (which is described in WO 2014/095700), (2-{5-Cyano-2-[(R)-6-methoxycarbonyl-7-methyl-3-oxo-8-(3-trifluoromethyl-phenyl)-2,3,5,8-tetrahydro-[1,2,4]triazolo[4,3-a]pyrimidin-5-yl]-phenyl}-ethyl)-trimethyl-ammonium bromide salt (whose synthesis is described in WO 2014/095700) or lactose (vehicle) given as dry powder formulations. The duration of aerosol exposure was of 60 minutes. On the day of dosing, animals were placed into the plethysmograph tubes for at least 30 minutes prior to dosing and respiratory parameters: respiratory rate, tidal volume, and PenH were continuously recorded for at least 30 minutes pre-dose, 60 minutes during dosing (exposure) and 90 minutes post-exposure. The respiratory parameters were recorded every minute for a total period of 3 hours using the EMMS eDacq system (PLY231, EMMS, Bordon, United Kingdom).
Data set [2] can be described thus: Head-out plethysmography (HOP) assay, lung function parameters. The settings on record: rats, dry powder snout-only inhalation.
Description: as §1
Data set [3] deals with T1, human neutrophil elastase (HNE) (Homo sapiens, UniProt P08246).
T1 sequence (P08246 30-267): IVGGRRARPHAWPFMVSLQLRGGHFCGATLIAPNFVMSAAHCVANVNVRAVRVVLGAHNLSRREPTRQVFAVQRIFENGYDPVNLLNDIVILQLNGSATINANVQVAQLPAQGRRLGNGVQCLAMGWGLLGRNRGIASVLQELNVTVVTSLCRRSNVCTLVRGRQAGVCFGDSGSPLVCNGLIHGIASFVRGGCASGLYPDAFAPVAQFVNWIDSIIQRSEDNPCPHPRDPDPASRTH
The data set is described as follows: HNE-induced lung injury assay (BAL fluid haemoglobin content). The format is in vivo, rat. Conditions: for % Inhibition at 300 μg/Kg (inhibition of HNE-induced haemoglobin content in BALF) / % Inhibition at 600 μg/Kg (inhibition of HNE-induced haemoglobin content in BALF): male Sprague Dawley rats, dry powder nose-only inhalation 3 hours prior to HNE i.t. 100 U/rat, vs HNE-treated vehicle control; for % Inhibition at 300 μg/Kg (inhibition of HNE-induced haemoglobin content in BALF): 300 μg/Kg (0.3 mg/kg); for % Inhibition at 600 μg/Kg (inhibition of HNE-induced haemoglobin content in BALF): 600 μg/Kg (0.6 mg/kg); for inhibition of BAL fluid haemoglobin content, dose dependence: inhalation as dry powder formulation at 0.03, 0.3 and 0.6 mg/kg. As for the experimental part:
Then, one hour after the PBS or HNE administration animals were sacrificed and bronchoalveolar lavage (BAL) was performed in order to assess the HNE-induced lung injury measured as haemoglobin concentration.
BAL fluid samples were centrifuged at 800 g for 15 min at 4° C. The supernatant was collected and the pellet was re-suspended in 3 mL of distilled water. A standard curve with known volumes of lysated blood cells was made from a stem solution of lysated blood cells. 150 μL of standards and samples were transferred in duplicate to a 96-well plate and the OD measured at 412 nm.
Percentage of compound efficacy (assessed as inhibition of HNE-induced haemoglobin content in BALF) was calculated following this formula: 100−[(mean of haemoglobin concentration of test compound treated rats exposed to HNE)−(mean of haemoglobin concentration of vehicle treated rats exposed to PBS)]/[(mean of haemoglobin concentration of vehicle treated rats exposed to HNE)−(mean of haemoglobin concentration of vehicle treated rats exposed to PBS)]×100.

The nature of data set [4]: Solubility in water of different salts. The settings on record: water at RT. The format is physicochemical. As for the experimental part:
The complete dissolution of the material was visually observed. […] From this experiment the xinafoate salt has a solubility lower than 0.05 mg/ml.

[5] abbreviates: male, Wistar, 0.6 mg/kg, 60 min.

Read-outs that look alike come from different tables or passages of the source.

Regarding `CC(=O)[O-].COC(=O)C1=C(C)N(c2cccc(C(F)(F)F)c2)c2n[nH]c(=O)n2[C@@H]1c1ccc(C#N)cc1CC[N+](C)(C)C` [Acetate, (2-{5-Cyano-2-[(R)-6-methoxycarbonyl-7-methyl-3-oxo-8-(3-trifluoromethyl-phenyl)-2,3,5,8-tetrahydro-[1,2,4]triazolo[4,3-a]pyrimidin-5-yl]-phenyl}-ethyl)-trimethyl-ammonium acetate salt], in data set [1] (male, Wistar, 7 mg/kg, 60 min), the “increase in PenH area” value was “about 9 fold”; the “increase in respiratory rate, maximum effect vs vehicle” value amounted to 51%; the “reduced tidal volume, maximum decrease vs vehicle control” value is 50%. Further, the “% of Reduction of tidal volume at the highest tested dose” value (shortened to “% of Reduction of tidal volume”) in data set [1] (male, Wistar, 60 min) is 50%.

Turning to `COC(=O)C1=C(C)N(c2cccc(C(F)(F)F)c2)c2n[nH]c(=O)n2[C@@H]1c1ccc(C#N)cc1CC[N+](C)(C)C.[Br-]` [Bromide, (2-{5-Cyano-2-[(R)-6-methoxycarbonyl-7-methyl-3-oxo-8-(3-trifluoromethyl-phenyl)-2,3,5,8-tetrahydro-[1,2,4]triazolo[4,3-a]pyrimidin-5-yl]-phenyl}-ethyl)-trimethyl-ammonium bromide salt], the results for the “increase in PenH area compared to vehicle” value in data set [2] (high dose (5.5 mg/kg)) and in data set [2] (low dose (0.55 mg/kg)) were about 20 fold and “about 8 fold”, respectively. The “reduction in tidal volume, maximum vs vehicle” value in data set [2] (high dose (5.5 mg/kg), during inhalation) is reported as 38%. The “increase in respiratory rate, maximum effect vs vehicle” value in data set [2] (low dose (0.55 mg/kg), during inhalation) is reported as 59%. In addition, the “% of Reduction of tidal volume” value in data set [2] (peak effect vs vehicle (lactose)) is on record as 38%.

For the compound `COC(=O)C1=C(C)N(c2cccc(C(F)(F)F)c2)c2n[nH]c(=O)n2[C@@H]1c1ccc(C#N)cc1CC[N+](C)(C)C.CS(=O)(=O)[O-]` [Methanesulfonate, (2-{5-Cyano-2-[(R)-6-methoxycarbonyl-7-methyl-3-oxo-8-(3-trifluoromethyl-phenyl)-2,3,5,8-tetrahydro-[1,2,4]triazolo[4,3-a]pyrimidin-5-yl]-phenyl}-ethyl)-trimethyl-ammonium methanesulfonate], in data set [3], the “% Inhibition at 300 μg/Kg (inhibition of HNE-induced haemoglobin content in BALF)” value was found to be 20% and the “% Inhibition at 600 μg/Kg (inhibition of HNE-induced haemoglobin content in BALF)” value came out at 25%. Besides, the “inhibition of BAL fluid haemoglobin content, dose dependence” value in data set [3] (rats) is recorded as “dose-dependent inhibition”. Further, in data set [1] (setting [5]), the “increase of PenH compared to vehicle group” value is “about 8 fold”; the “increase of respiratory rate, peak effect vs vehicle (lactose)” value turned out to be 32%; the “reduction of tidal volume, peak effect vs vehicle” value is given as 35%. In data set [1] (male, Wistar, 6 mg/kg, 60 min), the “increase of PenH compared to vehicle group” value is reported as about 16 fold; the “increase of respiratory rate, peak effect vs vehicle (lactose)” value came to 54%; the “reduction of tidal volume, peak effect vs vehicle” value amounted to 39%. The “% of Reduction of tidal volume” value in data set [1] (male, Wistar, 60 min) is given as 35-39%.

On to `COC(=O)C1=C(C)N(c2cccc(C(F)(F)F)c2)c2n[nH]c(=O)n2[C@@H]1c1ccc(C#N)cc1CC[N+](C)(C)C` [Xinafoate, (2-{5-Cyano-2-[(R)-6-methoxycarbonyl-7-methyl-3-oxo-8-(3-trifluoromethyl-phenyl)-2,3,5,8-tetrahydro-[1,2,4]triazolo[4,3-a]pyrimidin-5-yl]-phenyl}-ethyl)-trimethyl-ammonium xinafoate], for which, in data set [3], the “% Inhibition at 300 μg/Kg (inhibition of HNE-induced haemoglobin content in BALF)” value is given as 35% and the “% Inhibition at 600 μg/Kg (inhibition of HNE-induced haemoglobin content in BALF)” value is 80%. Moreover, the “efficacy in inhibiting HNE in vivo, comparison of the salts” value in data set [3] (rats, dry powder inhalation) is listed as “superior efficacy than the methanesulfonate salt”. In data set [3] (rats), the “inhibition of BAL fluid haemoglobin content, dose dependence” value is “dose-dependent inhibition”. For the same compound, the solubility in data set [4] (thermodynamic from solid, read-out: Solubility (mg/ml) in water) is under 0.05 mg/mL. For the same compound, in data set [4], the “Solubility (mg/ml) in water” value was under 0.05 mg/mL. Also, the “% of Reduction of tidal volume” value in data set [1] was “No variation of any lung function parameters”.

The values are drawn from US20250059195A1, “TRIAZOLONE DERIVATIVE SALT AS NEUTROPHIL ELASTASE INHIBITOR” (CHIESI FARMACEUTICI S.P.A., priority 2021, published 2025).
